Target: T1, IRAK4 (Homo sapiens, UniProt Q9NWZ3)
T1 construct: endogenous in cells; host or cells: OCI-LY10
T1 sequence (Q9NWZ3 1-460): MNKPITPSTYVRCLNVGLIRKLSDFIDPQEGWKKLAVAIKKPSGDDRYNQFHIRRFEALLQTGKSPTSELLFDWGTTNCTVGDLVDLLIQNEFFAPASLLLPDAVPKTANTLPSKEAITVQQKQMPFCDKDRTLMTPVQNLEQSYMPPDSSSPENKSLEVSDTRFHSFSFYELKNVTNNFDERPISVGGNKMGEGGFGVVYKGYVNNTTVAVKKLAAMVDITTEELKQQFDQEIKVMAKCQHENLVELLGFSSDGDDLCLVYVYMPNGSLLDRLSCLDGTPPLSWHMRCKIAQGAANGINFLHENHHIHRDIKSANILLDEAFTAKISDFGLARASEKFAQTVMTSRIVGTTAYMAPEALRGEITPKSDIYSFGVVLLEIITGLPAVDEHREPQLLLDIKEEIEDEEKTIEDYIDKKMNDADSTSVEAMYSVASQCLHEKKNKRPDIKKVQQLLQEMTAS
Assay: IRAK4 MSD degradation in OCI-LY10
Type: cell-based
Conditions: OCI-LY10 cells, 24 hrs, Meso Scale Discovery
Method: Degradation of IRAK4 in OCI-LY10 was quantitatively measured using Meso Scale Discovery technology. […] Compounds were then added to the assay plates with a final top concentration of 1 to 10 μM in a 1:3 dilution series with total of 8 doses. The assay plates were then incubated for 4 to 24 hours at 37° C. under 5% CO2. […] To prepare MSD assay plates (Meso Scale Discovery Catalog number L15XA-3), the plates were coated with 2 μg/mL capture antibody (mouse Anti-IRAK4 antibody [2H9], ab119942) in PBS, at 40 μL/well. […] Cell lysates were then added to MSD assay plates and the plates were incubated at room temperature for 1 hour. The plates were then washed 3 times with 150 μL/well TBST buffer and 25 μL/well primary detection antibody (rabbit Anti-IRAK4 antibody [Y279], from Abcam. Catalog number ab32511, 1 μg/mL). The assay plates were then incubated at room temperature for 1 hour, washed 3 times with 150 μL/well TBST buffer and 25 μL/well secondary detection antibody, SULFO-TAG anti-rabbit antibody were added (anti-rabbit antibody from Meso Scale Discovery, Catalog number R32AB-1, 1 μg/mL). The assay plates were then incubated at room temperature for 1 hour, washed 3 times with 150 μL/well TBST buffer, and 150 μL/well MSD reading buffer (Meso Scale Discovery catalog number R92TC-2) was added. The plates were then analyzed by a MSD reader (Meso Scale Discovery, Model Quick Plex SQ 120). The data was then analyzed by software Prism 7.0 from GraphPad and the dose-depended IRAK4 degradation were fit using a three-parameter logistic equation to calculate DC50.
The letter codes for IRAK4 DC50 include: A (<0.01 μM); B (0.01 to <0.1 μM); C (0.1 to 0.2 μM); D (>0.2 μM) and E (not tested).

| SMILES | DC50 [nM] |
| --- | --- |
| CN(C[C@H]1CC[C@H](n2cc3cc(NC(=O)c4cccc(C(F)(F)F)n4)ncc3n2)CC1)[C@H]1CCN(c2cccc3c2n(C)c(=O)n3C2CCC(=O)NC2=O)C[C@@H]1F (single isomer, unassigned) [I-36] | 10 to 100 |
| O=C1CCC(Nc2ccc(N3CC(CO[C@@H]4CCN(C[C@H]5CC[C@H](n6cc(NC(=O)c7cnn8ccc(N9C[C@H]%10C[C@@H]9CO%10)nc78)c(C(F)F)n6)CC5)C[C@@H]4F)C3)cc2)C(=O)N1 (single isomer, unassigned) [I-73] | 10 to 100 |
| O=C1CCN(c2cncc3c(N4CC(CO[C@H]5CCN(C[C@H]6CC[C@H](n7cc(NC(=O)c8cnn9ccc(N%10C[C@H]%11C[C@@H]%10CO%11)nc89)c(C(F)F)n7)CC6)C[C@@H]5F)C4)cccc23)C(=O)N1 (single isomer, unassigned) [I-75] | 10 to 100 |
| COc1cc2nc([C@H]3CC[C@H](CN4CC[C@@H](c5cccc6c5n(C)c(=O)n6C5CCC(=O)NC5=O)[C@H](F)C4)CC3)sc2cc1NC(=O)c1cccc(C(F)(F)F)n1 (single isomer, unassigned) [I-78] | 100 to 200 |
| COc1cc2nc([C@H]3CC[C@H](CN4CC[C@H](c5cccc6c5n(C)c(=O)n6C5CCC(=O)NC5=O)[C@@H](F)C4)CC3)sc2cc1NC(=O)c1cccc(C(F)(F)F)n1 (single isomer, unassigned) [I-79] | > 200 |
| O=C1CCC(Nc2ccc(N3CC(CO[C@H]4CCN(C[C@H]5CC[C@H](n6cc(NC(=O)c7cnn8ccc(N9C[C@H]%10C[C@@H]9CO%10)nc78)c(C(F)F)n6)CC5)C[C@@H]4F)C3)cc2)C(=O)N1 (single isomer, unassigned) [I-85] | 10 to 100 |
| COc1cc2nc([C@H]3CC[C@H](CN4CC[C@H](c5cccc6c5n(C)c(=O)n6C5CCC(=O)NC5=O)[C@@H](F)C4)CC3)oc2cc1NC(=O)c1cccc(C(F)(F)F)n1 (single isomer, unassigned) [I-89] | > 200 |
| COc1cc2nc([C@H]3CC[C@H](CN(C)[C@@H]4CCN(c5cccc6c5n(C)c(=O)n6C5CCC(=O)NC5=O)C[C@H]4F)CC3)sc2cc1NC(=O)c1cccc(C(F)(F)F)n1 (single isomer, unassigned) [I-98] | 10 to 100 |
| COc1cc2nc([C@H]3CC[C@H](CN4CC[C@@H](c5cccc6c5n(C)c(=O)n6C5CCC(=O)NC5=O)[C@H](F)C4)CC3)oc2cc1NC(=O)c1cccc(C(F)(F)F)n1 (single isomer, unassigned) [I-121] | 10 to 100 |
| CN(C[C@H]1CC[C@H](n2cc(NC(=O)c3cnn4ccc(N5C[C@H]6C[C@@H]5CO6)nc34)c(C(F)F)n2)CC1)[C@H]1CCN(c2cccc3c2n(C)c(=O)n3[C@@H]2CCC(=O)NC2=O)C[C@@H]1F (single isomer, unassigned) [I-143] | < 10 |
| CN(C[C@H]1CC[C@H](n2cc(NC(=O)c3cnn4ccc(N5C[C@H]6C[C@@H]5CO6)nc34)c(C(F)F)n2)CC1)[C@H]1CCN(c2cccc3c2n(C)c(=O)n3[C@H]2CCC(=O)NC2=O)C[C@@H]1F (single isomer, unassigned) [I-144] | < 10 |
| CN(C[C@H]1CC[C@H](n2cc(NC(=O)c3cnn4cccnc34)c(C(F)F)n2)CC1)[C@H]1CCN(c2cccc3c2n(C)c(=O)n3C2CCC(=O)NC2=O)C[C@H]1F (single isomer, unassigned) [I-145] | < 10 |
| COc1ccc2c(c1N1CC[C@H](N(C)C[C@H]3CC[C@H](n4cc(NC(=O)c5cnn6cccnc56)c(C(F)F)n4)CC3)[C@@H](F)C1)n(C)c(=O)n2C1CCC(=O)NC1=O (single isomer, unassigned) [I-146] | < 10 |
| COc1ccc2c(c1N1CC[C@H](N(C)C[C@H]3CC[C@H](n4cc(NC(=O)c5cnn6cccnc56)c(C(F)F)n4)CC3)[C@H](F)C1)n(C)c(=O)n2C1CCC(=O)NC1=O (single isomer, unassigned) [I-147] | < 10 |
| COc1ccc2c(c1N1CC[C@@H](N(C)C[C@H]3CC[C@H](n4cc(NC(=O)c5cnn6cccnc56)c(C(F)F)n4)CC3)[C@H](F)C1)n(C)c(=O)n2C1CCC(=O)NC1=O (single isomer, unassigned) [I-152] | < 10 |
| COc1ccc2c(c1N1CC[C@@H](N(C)C[C@H]3CC[C@H](n4cc(NC(=O)c5cnn6cccnc56)c(C(F)F)n4)CC3)[C@@H](F)C1)n(C)c(=O)n2C1CCC(=O)NC1=O (single isomer, unassigned) [I-153] | < 10 |
| Cn1c(=O)n(C2CCC(=O)NC2=O)c2cccc([C@@H]3CCN(C[C@H]4CC[C@H](n5cc6cc(NC(=O)c7cncc(C(F)(F)F)n7)ccc6n5)CC4)CC3(F)F)c21 (single isomer, unassigned) [I-179] | < 10 |
| COc1ccc2c(c1N1CC[C@@H](N(C)C[C@H]3CC[C@H](n4cc(NC(=O)c5cnn6cccnc56)c(C(F)F)n4)CC3)C(F)(F)C1)n(C)c(=O)n2C1CCC(=O)NC1=O (single isomer, unassigned) [I-204] | 10 to 100 |
| CN(C[C@H]1CC[C@H](c2cc3cc(NC(=O)c4cncc(C(F)(F)F)n4)ccn3n2)CC1)[C@@H]1CCN(c2cccc3c2n(C)c(=O)n3C2CCC(=O)NC2=O)C[C@@H]1F (single isomer, unassigned) [I-211] | > 200 |

Results, then the compound that gave them:

| DC50 [nM] | SMILES |
| --- | --- |
| < 10 | CN(C[C@H]1C[C@@H](n2cc(NC(=O)c3cnn4ccc(N5C[C@H]6C[C@@H]5CO6)nc34)c(C(F)F)n2)C1)[C@H]1CCN(c2cccc3c2n(C)c(=O)n3C2CCC(=O)NC2=O)C[C@@H]1F (single isomer, unassigned) [I-4] |
| < 10 | CN(C[C@H]1C[C@H](n2cc(NC(=O)c3cnn4ccc(N5C[C@H]6C[C@@H]5CO6)nc34)c(C(F)F)n2)C1)[C@H]1CCN(c2cccc3c2n(C)c(=O)n3C2CCC(=O)NC2=O)C[C@@H]1F (single isomer, unassigned) [I-6] |
| < 10 | Cn1c(=O)n(C2CCC(=O)NC2=O)c2cccc([C@H]3CCN(C[C@H]4CC[C@H](n5cc6cc(NC(=O)c7cccc(C(F)(F)F)n7)ccc6n5)CC4)C[C@@H]3F)c21 (single isomer, unassigned) [I-11] |
| < 10 | Cn1c(=O)n(C2CCC(=O)NC2=O)c2cccc([C@@H]3CCN(C[C@H]4CC[C@H](n5cc6cc(NC(=O)c7cccc(C(F)(F)F)n7)ccc6n5)CC4)C[C@H]3F)c21 (single isomer, unassigned) [I-12] |
| < 10 | CN(C[C@H]1CC[C@H](n2cc(NC(=O)c3cnn4ccc(N5C[C@H]6C[C@@H]5CO6)nc34)c(C(F)F)n2)CC1)[C@@H]1CCN(c2cccc3c2n(C)c(=O)n3C2CCC(=O)NC2=O)C[C@@H]1F (single isomer, unassigned) [I-29] |
| < 10 | CN(C[C@H]1C[C@H](n2cc(NC(=O)c3cnn4ccc(N5C[C@H]6C[C@@H]5CO6)nc34)c(C(F)F)n2)C1)[C@@H]1CCN(c2cccc3c2n(C)c(=O)n3C2CCC(=O)NC2=O)C[C@@H]1F (single isomer, unassigned) [I-59] |
| < 10 | CN(C[C@H]1C[C@H](n2cc(NC(=O)c3cnn4ccc(N5C[C@H]6C[C@@H]5CO6)nc34)c(C(F)F)n2)C1)[C@H]1CCN(c2cccc3c2n(C)c(=O)n3C2CCC(=O)NC2=O)C[C@H]1F (single isomer, unassigned) [I-60] |
| < 10 | Cn1c(=O)n(C2CCC(=O)NC2=O)c2cccc([C@@H]3CCN(C[C@H]4CC[C@H](n5cc6cc(NC(=O)c7cccc(C(F)(F)F)n7)c(C#N)cc6n5)CC4)C[C@H]3F)c21 (single isomer, unassigned) [I-95] |
| < 10 | Cn1c(=O)n(C2CCC(=O)NC2=O)c2cccc([C@H]3CCN(C[C@H]4CC[C@H](n5cc6cc(NC(=O)c7cccc(C(F)(F)F)n7)c(C#N)cc6n5)CC4)C[C@@H]3F)c21 (single isomer, unassigned) [I-96] |
| < 10 | COc1cc2nc([C@H]3CC[C@H](CN(C)[C@@H]4CCN(c5cccc6c5n(C)c(=O)n6C5CCC(=O)NC5=O)C[C@@H]4F)CC3)sc2cc1NC(=O)c1cccc(C(F)(F)F)n1 (single isomer, unassigned) [I-99] |
| < 10 | COc1cc2nn([C@H]3CC[C@H](CN4CC[C@H](c5cccc6c5n(C)c(=O)n6C5CCC(=O)NC5=O)[C@@H](F)C4)CC3)cc2cc1NC(=O)c1cncc(C#N)c1 (single isomer, unassigned) [I-100] |
| < 10 | COc1cc2nn([C@H]3CC[C@H](CN4CC[C@@H](c5cccc6c5n(C)c(=O)n6C5CCC(=O)NC5=O)[C@H](F)C4)CC3)cc2cc1NC(=O)c1cncc(C#N)c1 (single isomer, unassigned) [I-101] |

From patent publication US20250059164A1, “IRAK DEGRADERS AND USES THEREOF” (Kymera Therapeutics, Inc., priority 2023, published 2025)
